What was measured:
Assay type in all cases: cell-based, M. maize
[1] = target: T1, mutant pyrrolysyl tRNA synthetase comprising amino acid substitutions Y306A and Y384F (pylRS^AF) (Methanosarcina mazei, UniProt Q8PWY1, Y306A/Y384F); experiment: Expression of GFP^TAG in E. coli in presence of UAA (amber suppression) with tRNA^pyl/pylRS^AF; conditions: 1 mM UAA; for incorporation by RS^AF (GFP fluorescence, SDS-PAGE): FIG. 6; for Expression of GFP^TAG protein: pylRS^WT or pylRS^AF, compared to negative control (FIG. 1)
T1 construct: expressed in transfected cells; host or cells: E. coli Top10, plasmid pEVOL tRNA^pyl/pylRS^AF
T1 sequence (Q8PWY1 whole entry Y306A/Y384F): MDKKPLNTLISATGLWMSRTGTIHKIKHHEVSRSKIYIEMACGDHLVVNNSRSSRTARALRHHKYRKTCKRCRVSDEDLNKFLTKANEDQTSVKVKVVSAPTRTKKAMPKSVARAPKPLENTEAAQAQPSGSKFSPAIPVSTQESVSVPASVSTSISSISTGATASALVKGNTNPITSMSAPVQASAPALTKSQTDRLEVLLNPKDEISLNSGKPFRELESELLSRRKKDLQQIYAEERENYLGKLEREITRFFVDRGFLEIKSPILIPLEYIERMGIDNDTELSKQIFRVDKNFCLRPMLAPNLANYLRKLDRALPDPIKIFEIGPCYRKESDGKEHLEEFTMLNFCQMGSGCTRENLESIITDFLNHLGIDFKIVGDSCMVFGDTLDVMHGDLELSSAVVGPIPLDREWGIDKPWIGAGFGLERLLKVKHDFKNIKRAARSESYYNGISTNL

tRNA^pyl/pylRS^WT = target: T2, tRNA^pyl/pylRS^WT (Methanosarcina mazei, UniProt Q8PWY1); experiment: UAA dependent amber suppression in HeLa cells (NLS-mCherry-^TAGGFP, automated microscope), RS^WT; conditions: HeLa nuclei, 24 h after transfection
T2 construct: expressed in transfected cells; host or cells: HeLa Kyoto cells, plasmid pCMV tRNA^pyl/pylRS^WT
T2 sequence (Q8PWY1 whole entry): as the sequence (Q8PWY1 whole entry Y306A/Y384F) above, with A306Y, F384Y counted along it
From the text: (§1) A single expression plasmid for expression of both tRNA^pyl and the pyrrolysine synthetase pylRS was generated by replacing the tRNA and synthetase of mammalian UAA expression plasmid pSWAN (Liu et al., Nat Methods 2007, 4: 239) with a synthetic gene derived from the plasmid pEVOL tRNA^pyl/pylRS^WT or pEVOL tRNA^pyl/pylRS^AF.
(§2) For mammalian amber suppression studies, a NLS-mCherry-^TAGGFP fusion protein was generated. Due to the nuclear localization sequence (NLS) the expressed protein was targeted to the nucleus. Accordingly, mCherry expression was visible by orange fluorescence in the nucleus signifying the successful transfection of the plasmid. Green fluorescence indicated successful GFP expression due to successful co-transfection of the appropriate tRNA^pyl/pylRS plasmid and suppression of the amber codon in the fused ^TAGGFP.
(§3) UAA concentration dependent GFP expression in the presence of UAA 1, 13, 16 or 17 and RS^WT or RS^AF was analyzed using the following automated microscope procedure.
(§4) HeLa Kyoto cells were grown in DMEM low glucose medium (1 g/l) (Sigma, Munich, Germany) with 10% FBS (Sigma) and 1% L-glutamine. 10−20×10^3 cells per well were seeded in a glass bottom 24-well chamber and cultured overnight. On the next-day, the growth medium was exchanged for fresh one supplied with increasing concentrations of UAA (0, 1, 10, 100, 250, 1000 μM), and the cells were co-transfected (1:1 ratio) with plasmids-carrying NLS-mCherry-^TAGGFP and the respective tRNA^pyl/pylRS pair (RS^WT or RS^AF) using jetPRIME transfection reagent following the manufacturer protocol (Polyplus-transfection. SA, Illkirch, France). 24 h after transfection, cells were stained with Hoechst 33342 (1 μg/ml, 10 min), fixed with 2% paraformaldehyde (15 min, RT) and kept in PBS for imaging. For every UAA concentration, the experiment was repeated twice and in two independently prepared 24 well chambers.
(§5) Microscopy imaging was performed using automated widefield Olympus ScanR microscope (objective UplanApo 20×, 0.70 NA, Hamamatsu Orca R2 CCD camera) in, three channels (Hoechst, GFP, mCherry). For every well at least 25 images (1344×1024 pixels; 433×330 μm, 12-bit) were acquired (exposure times: 30 ms Hoechst, 100 ms mCherry, 100 ms for GFP). Hoechst staining allowed use of the automated focus option of the system. Images were analyzed using the ImageJ macro (http://fiji.sc/wiki/index.php) allowing quantification of GFP fluorescence intensity in the cells showing mCherry fluorescence signal. Hoechst staining was used to threshold and select nuclei. For every detected nucleus, intensities, in the mCherry and GFP channels were quantified. Background intensities in GFP and mCherry channel were measured using one well of each chamber containing cells that were not transfected but stained with Hoechst. Those background values set the threshold to discriminate cells expressing mCherry from the background. For every well the average intensity of GFP (IGFP) in cells positive for GFP and mCherry signals was determined as a measure of successful UAA incorporation. GFP intensities were normalized separately for every UAA based on the maximal observed signal (either for RS^WT or RS^AF).

tRNA^pyl/pylRS^AF = target: T3, tRNA^pyl/pylRS^AF (Methanosarcina mazei, UniProt Q8PWY1, Y306A/Y384F); experiment: UAA dependent amber suppression in HeLa cells (NLS-mCherry-^TAGGFP, automated microscope), RS^AF; conditions: HeLa nuclei, 24 h after transfection
T3 construct: expressed in transfected cells; host or cells: HeLa Kyoto cells, plasmid pCMV tRNA^pyl/pylRS^AF
T3 sequence (Q8PWY1 whole entry Y306A/Y384F): as the sequence (Q8PWY1 whole entry Y306A/Y384F) above
From the text: as §1, §2, §3, §4, §5

[2] = target: T4, wildtype pyrrolysyl tRNA synthetase (pylRS^WT) (Methanosarcina mazei, UniProt Q8PWY1); experiment: Expression of GFP^TAG in E. coli in presence of UAA (amber suppression) with tRNA^pyl/pylRS^WT; conditions: 1 mM UAA, FIG. 6
T4 construct: expressed in transfected cells; host or cells: E. coli Top10, plasmid pEVOL tRNA^pyl/pylRS^WT
T4 sequence (Q8PWY1 whole entry): as the sequence (Q8PWY1 whole entry Y306A/Y384F) above, with A306Y, F384Y counted along it

Row | Structure (SMILES) | incorporation by RS^AF (GFP fluorescence, SDS-PAGE) [1] | IGFP (average intensity of GFP, normalized) (tRNA^pyl/pylRS^WT; 1 μM UAA) | IGFP (average intensity of GFP, normalized) (tRNA^pyl/pylRS^WT; 10 μM UAA) | IGFP (average intensity of GFP, normalized) (tRNA^pyl/pylRS^WT; 100 μM UAA) | IGFP (average intensity of GFP, normalized) (tRNA^pyl/pylRS^WT; 250 μM UAA) | IGFP (average intensity of GFP, normalized) (tRNA^pyl/pylRS^WT; 1000 μM UAA) | IGFP (average intensity of GFP, normalized) (tRNA^pyl/pylRS^AF; 1 μM UAA) | IGFP (average intensity of GFP, normalized) (tRNA^pyl/pylRS^AF; 10 μM UAA) | IGFP (average intensity of GFP, normalized) (tRNA^pyl/pylRS^AF; 100 μM UAA) | IGFP (average intensity of GFP, normalized) (tRNA^pyl/pylRS^AF; 250 μM UAA) | IGFP (average intensity of GFP, normalized) (tRNA^pyl/pylRS^AF; 1000 μM UAA) | Expression of GFP^TAG protein [1] | Incorporation by RS^WT (GFP^TAG expression) [2]
1 | N[C@@H](CCCCNC(=O)OCC1CC2C=CC1C2)C(=O)O (some centres unmarked) [compound 17] | efficient incorporation | 4.2 | 2.6 | 4.3 | 5.7 | 12.8 | 10.9 | 57.5 | 76.6 | 163.5 | 108.9 |  | 
2 | N[C@@H](CCCCNC(=O)OC1CC/C=C/CCC1)C(=O)O (some centres unmarked) [compound 13] | efficient incorporation | 6.3 | 6.9 | 15.9 | 22.3 | 33.2 | 11.1 | 11.0 | 28.8 | 36.5 | 20.6 |  | 
3 | N[C@@H](CCCCNC(=O)OC1C#CCCCCC1)C(=O)O (stereo partly drawn) [compound 1, N-ε-((Cyclooct-2-yn-1-yloxy)carbonyl)-L-lysine] | efficient incorporation | 3.3 | 5.9 | 27.6 | 59.6 | 57.5 | 23.7 | 131.7 | 106.1 | 203.6 | 118.4 | observed | 
4 | N[C@@H](CCCCNC(=O)OC1CC2C=CC1C2)C(=O)O (some centres unmarked) [compound 16] | efficient incorporation | 1.5 | 6.9 | 9.4 | 171.6 | 178.3 | 5.7 | 46.1 | 114.8 | 100.4 | 96.9 |  | highest GFP^TAG expression
5 | N[C@@H](CCCCNC(=O)OCCOC1C#CCCCCC1)C(=O)O (stereo partly drawn) [compound 2, N-ε-((2-(Cyclooct-2-yn-1-yloxy)ethoxy)carbonyl)-L-lysine] |  |  |  |  |  |  |  |  |  |  |  | observed | 
